# Laboratory results published in US5411977A, “Substituted 2,5-diaryl-4-isothiazolin-3-ones as antiinflammatory and antithrombotic agents” (The Dupont Merck Pharmaceutical Company, priority 1993, dated 1995).
# Tested on: IL-lb-induced proteoglycan breakdown in bovine nasal cartilage
# Assay: in vitro cytokine-induced cartilage degradation assay (Bovine Nasal Septum Cartilage Degradation Assay)
# Type: cell-based
# Settings: Bos taurus; IL-lb (500 ng/ml), 40 hours, 37° C.
# Procedure: The compounds are efficacious in an in vitro cytokine-induced cartilage degradationassay (Arner EC and Pratta MA 1989. Arthritis Rheum 32:288-297). The activity of these compounds in blocking IL-lb-induced proteoglycan breakdown in bovine nasal cartilage was assessed.
# Bovine nasal cartilage was incubated in Dulbecco's 10 modified Eagle's Medium (DMEM) containing 5% FCS and antibiotics at 37° C. in an atmosphere of 95% air and 5% CO2 for 40 hours in the absence or presence of IL-lb (500 ng/ml), with or without compound. Compounds were dissolved in DMSO (10^-2M) and further diluted with 15 medial to the required concentration and were included throughout the culture period. At the end of incubation, media were removed and assayed proteoglycan breakdown products using the 1,9 dimethylmethylene blue assay for glycosaminoglycans. Compounds were evaluated for the ability to block the stimulated release of proteoglycan in response to IL-l.
row,SMILES,IC50
1,"Cc1ccc(-n2sc(-c3ccccc3)cc2=O)cc1 [Example 1, N-(4-methylphenyl)-5-phenyl-4-isothiazolin-3-one]",13.2 µM
2,"CCOC(=O)c1ccc(-n2sc(-c3ccccc3)cc2=O)cc1 [Example 4, N-(4-carbethoxyphenyl)-5-phenyl-4-isothiazolin-3-one]",8.3 µM
3,"O=c1cc(-c2ccccc2)sn1-c1nc2ccccc2s1 [Example 8, N-(2-benzothiazolyl)-5-phenyl-4-isothiazolin-3-one]",15 µM
4,"O=c1c(-c2ccccc2)c(-c2ccccc2)sn1-c1ccccc1 [Example 10, 4,5,N-triphenyl-4-isothiazolin-3-one]",43.5 µM
5,O=c1cc(-c2ccccc2Cl)sn1-c1ccccc1 [Example 11],11.2 µM
6,COc1ccccc1-c1cc(=O)n(-c2ccccc2)s1 [Example 12],34.5 µM
7,O=c1cc(-c2ccccc2)sn1-c1ccc(Cl)cc1 [Example 13],14.8 µM
8,O=c1cc(-c2ccccc2)sn1-c1ccc(C(F)(F)F)cc1 [Example 15],7.2 µM

# Other lines, results leading:
row,IC50,SMILES
1,31 µM,O=c1cc(-c2ccccc2)sn1-c1ccc([N+](=O)[O-])cc1 [Example 16]
2,14 µM,Cc1cc([N+](=O)[O-])ccc1-n1sc(-c2ccccc2)cc1=O [Example 17]
3,7.8 µM,N#Cc1ccc(-n2sc(-c3ccccc3)cc2=O)cc1 [Example 18]
4,11.3 µM,O=c1cc(-c2ccccc2)sn1-c1cccc(Cl)c1 [Example 19]
5,19 µM,COc1cccc(-n2sc(-c3ccccc3)cc2=O)c1 [Example 20]
6,7 µM,O=c1cc(-c2ccccc2)sn1-c1cccc(C(F)(F)F)c1 [Example 21]
7,14.8 µM,O=c1cc(-c2ccc(Cl)cc2)sn1-c1ccccc1 [Example 28]
8,18.5 µM,O=c1cc(-c2cccc(Cl)c2)sn1-c1ccccc1 [Example 29]
9,14 µM,O=c1cc(-c2cccc(C(F)(F)F)c2)sn1-c1ccccc1 [Example 33]
10,7.2 µM,O=c1cc(-c2ccccc2C(F)(F)F)sn1-c1ccccc1 [Example 34]
11,7.8 µM,CCOC(=O)c1cccc(-n2sc(-c3ccccc3)cc2=O)c1 [Example 37]
12,12 µM,CCOC(=O)c1ccccc1-n1sc(-c2ccccc2)cc1=O [Example 38]

# Same assay, conditions: Bos taurus; at 30 μM; IL-lb (500 ng/ml), 40 hours, 37° C.
row,SMILES,inhibition at 30 µM
1,"O=c1c(Br)c(-c2ccccc2)sn1-c1ccccc1 [Example 2, 4-bromo-N,5-diphenyl-4-isothiazolin-3-one]",38%
2,"O=C(O)c1ccc(-n2sc(-c3ccccc3)cc2=O)cc1 [Example 3, N-(4-carboxyphenyl)-5-phenyl-4-isothiazolin-3-one]",19%
3,"NC(=O)c1ccc(-n2sc(-c3ccccc3)cc2=O)cc1 [Example 5, N-(4-carboxamidophenyl)-5-phenyl-4-isothiazolin-3-one]",42%
4,"Nc1ccccc1-n1sc(-c2ccccc2)cc1=O [Example 6, N-(2-aminophenyl) -5-phenyl-4-isothiazolin-3-one]",19%
5,"O=c1cc(-c2ccccc2)sn1-c1ccc(N(S(=O)(=O)C(F)(F)F)S(=O)(=O)C(F)(F)F)cc1 [Example 7, N-(4-(bistrifluoromethane)sulfonamidophenyl)-5-phenyl-4-isothiazolin-3-one]",48%
6,"O=C(O)c1ccc(-c2cc(=O)n(-c3ccccc3)s2)cc1 [Example 9, 5-(4-carboxyphenyl)-N-phenyl-4-isothiazolin-3-one]",18%
7,COc1ccc(-n2sc(-c3ccccc3)cc2=O)cc1 [Example 14],85%
8,Cc1ccccc1-n1sc(-c2ccccc2)cc1=O [Example 22],52%
9,O=c1cc(-c2ccccc2)sn1-c1ccccc1Cl [Example 23],33%
10,COc1ccccc1-n1sc(-c2ccccc2)cc1=O [Example 24],61%
11,O=c1cc(-c2ccccc2)sn1-c1ccccc1C(F)(F)F [Example 25],25%
12,"O=c1cc(-c2ccccc2)sn1-c1ccccc1[N+](=O)[O-] [Example 26, N-(2-nitrophenyl)-5-phenyl-4-isothiazolin-3-one]",43%
13,COc1ccc(-c2cc(=O)n(-c3ccccc3)s2)cc1 [Example 30],37%
14,O=c1cc(-c2ccc(C(F)(F)F)cc2)sn1-c1ccccc1 [Example 32],25%
15,O=C(O)c1cccc(-n2sc(-c3ccccc3)cc2=O)c1 [Example 35],13%
16,O=C(O)c1ccccc1-n1sc(-c2ccccc2)cc1=O [Example 36],26%
17,"Nc1ccc(-n2sc(-c3ccccc3)cc2=O)cc1 [Example 39, N-(4-aminophenyl)-5-phenyl-4-isothiazolin-3-one]",32%
18,Cc1cc(N)ccc1-n1sc(-c2ccccc2)cc1=O [Example 40],14%
